Reference: PubChem BioAssay AID1996
Converted amounts (≈) assume the structure as drawn.

Settings: buffer; pH 7.4; 200.0 µM

| SMILES | solubility kinetic [µg/mL] |
| --- | --- |
| O=C1CS/C(=N/N=C/c2ccncc2)N1 | > 33 |
| O=C1/C(=C/c2ccccn2)SC(=S)N1Cc1ccccc1 | < 0.3 |
| COc1ccc(C(=S)N2CCOCC2)cc1OC(=O)c1ccccc1 | 23.6 (≈ 66 µM) |
| COc1ccc(NC(=O)Nc2ccc3nonc3c2)cc1 | 5.3 (≈ 18.6 µM) |
| Cc1ccc(NC(=O)CNC(=O)c2ccc(C)s2)nc1 | > 43.4 |
| CC1CCN(CCC(=O)Nc2ccccc2)CC1 | 29.5 (≈ 120 µM) |
| CC(=O)Nc1ccc(NC(=O)COC(=O)COc2ccc3ccccc3c2)cc1 | 9.7 (≈ 24.7 µM) |
| CC(=O)Nc1ccc(S(=O)(=O)N(C)c2ccc(OCCOc3cccc(C)c3)cc2)cc1 | 5 (≈ 11 µM) |
| N#C/C(=C\c1ccncc1)c1ccccn1 | > 31.1 |
| Cc1[nH]c2c(C)cccc2c1CC(=O)O | > 30.5 |
| CSCC[C@H](NC(=O)c1ccc(OCC2CCCO2)cc1)c1nc2ccccc2[nH]1 (stereo not given in full) | 56.9 (≈ 134 µM) |
| Cc1cc2cc(CNC(=S)NC3CCCCC3)ccc2[nH]1 | 12.5 (≈ 41.5 µM) |
| CCc1cc2c(=O)oc(-c3ccc(F)cc3)nc2s1 | < 0.6 |
| CCN(CC(=O)NCc1cccs1)C(=O)Cc1ccc(Cl)c(Cl)c1 | > 57.8 |
| O=C(CNC(=O)c1ccc(F)cc1)Nc1ccccc1C(F)(F)F | 16.2 (≈ 47.6 µM) |
| CCC(NC(=O)Nc1cc(C)on1)(C(F)(F)F)C(F)(F)F | 14.6 (≈ 45.7 µM) |
| Cc1ccc(NC(=O)C2CCCN(C(=O)Nc3ccc(F)cc3)C2)cc1 (stereo not given) | 13.4 (≈ 37.7 µM) |
| Cc1ccc(C(=O)Nc2cccnc2)cc1Cl | 35.6 (≈ 144 µM) |
| CCOC(=O)CCNC(=O)N1CCCC(C(=O)c2ccccc2SC)C1 (stereo not given) | > 56.8 |
| O=C1CCCN1S(=O)(=O)c1ccc(F)cc1 | > 36.5 |
| COC(=O)C1CCN(C(=O)/C=C/c2ccc3c(c2)OCO3)CC1 | 34 (≈ 107 µM) |
| CC(=O)NC(CC(=O)OCc1ccc([N+](=O)[O-])cc1)c1ccccc1 (stereo not given) | > 51.4 |
| CC(=O)Oc1ccc(C(=O)Nc2cccc3c2CCCC3)cc1 | 3.4 (≈ 11 µM) |
| N#Cc1ccccc1NC(=O)COC(=O)c1ccc(F)cc1F | 11.1 (≈ 35.1 µM) |
| O=C(NCCN1CCOCC1)c1ccc(Cl)c(Cl)c1 | 43.5 (≈ 143 µM) |
| CC(=O)NCc1ccc(-c2csc(-c3cccs3)n2)cc1 | 4.8 (≈ 15.3 µM) |

| SMILES | solubility kinetic [µg/mL] |
| --- | --- |
| Cc1nn(CCCC(=O)Nc2ccccn2)c(C)c1[N+](=O)[O-] | > 45.5 |
| Cn1c(NC(=O)c2ccc(F)cc2)nc2ccccc21 | 4.8 (≈ 17.8 µM) |
| Cc1nc(CN(C)Cc2nc(Cc3ccccc3Cl)no2)cs1 | 44.3 (≈ 127 µM) |
| O=S(=O)(/N=C(/c1ccccc1)N1CCOCC1)c1ccc(F)cc1F | > 55 |
| Cc1cccc(OCCc2c(C)[nH]c(=S)[nH]c2=O)c1 | 3.2 (≈ 11.6 µM) |
| Cc1cc(N2Cc3ccccc3C2)ccc1C=O | 7.1 (≈ 29.9 µM) |
| CC(=O)Nc1ccc(C(=O)OCC(=O)N(c2ccccc2)C2CCCCC2)cc1 | 3.8 (≈ 9.63 µM) |
| COC(=O)c1ccc(NC(=O)c2cc[n+](Cc3ccccc3)cc2)cc1.[Cl-] | 50.7 |
| Cc1cccc(C)c1OCCCCN1CCNCC1.O=C(O)C(=O)O | 46 |
| CC(C)c1ccc(C(O)P(=O)(OCc2ccccc2)c2ccc(N(C)C)cc2)cc1 (stereo not given) | 6.2 (≈ 14.6 µM) |
| O=C(O)CC1c2ccccc2CCN1S(=O)(=O)c1cccs1 (stereo not given) | > 50.6 |
| O=C(NC1CC2CCCC(C1)N2Cc1ccccc1)c1cccc(F)c1 (stereo not given) | 45.1 (≈ 128 µM) |
| Cc1cccc(N(C)S(=O)(=O)c2ccc3c(c2)NC(=O)CC(=O)N3)c1 | > 53.9 |
| COc1ccc(NC(=O)c2ccc3[nH]c(C)c(C)c3c2)c(OC)c1 | 1.9 (≈ 5.86 µM) |
| C[N+](C)=C1SCC(C)(/C=N/O)S1.[Br-] (stereo not given) | > 42.8 |
| COc1ccc(-c2onc3ccc(C(=O)/C=C/N(C)C)cc23)cc1 | 9.3 (≈ 28.8 µM) |
| c1ccc(-c2cc(-c3ccccc3)ncn2)cc1 | 4.6 (≈ 19.8 µM) |
| N#Cc1c(C(F)(F)F)cc(-c2ccc(F)cc2)nc1SCC(=O)O | 51.2 (≈ 144 µM) |
| COc1ccc(-c2csc3ncnc(NCCCO)c23)cc1 | 42.2 (≈ 134 µM) |
| O=C(CCCc1ccccc1)Nc1ccc(Br)cc1F | < 0.7 |
| O=C(NCCc1ccccn1)c1ccc(OC(F)F)cc1 | > 43.8 |
| COCCCNc1nc(N)c([N+](=O)[O-])c(N2CCCCCC2)n1 | 47.4 (≈ 146 µM) |
| CC(Sc1ccccc1)C(=O)N(CCC#N)Cc1cccnc1 (stereo not given) | > 48.8 |
| Br.COc1ccc(C(=O)CN2CCCCC2)cc1 | > 47.1 |
| O=C(COC(=O)c1cccs1)NC1CCCC1 | 36.5 (≈ 144 µM) |
| CC(C)c1ccc(NC(=S)NN2CCN(C)CC2)cc1 | > 43.9 |

| SMILES | solubility kinetic [µg/mL] |
| --- | --- |
| CC(NC(=O)CCc1ccccc1)c1ccc2c(c1)OCO2 (stereo not given) | 42 (≈ 141 µM) |
| Cc1ccc([N+](=O)[O-])cc1NC(=O)Cc1ccc(F)cc1 | < 0.3 |
| COc1ccc(CCNc2nc(-c3ccncc3)cs2)cc1OC | 35.9 (≈ 105 µM) |
| O=c1cc(CSc2ccccc2)[nH]c2ccccc12 | 39.7 (≈ 148 µM) |
| COc1cccc(NC(=O)c2ccc3nc(C)sc3c2)c1 | 38.7 (≈ 130 µM) |
| COC(=O)c1cn(C(=O)c2cccc3ccccc23)c2ccccc12 | < 0.7 |
| Cc1cn(Cc2ccccc2Cn2cc(C)c(=O)[nH]c2=O)c(=O)[nH]c1=O | 52.3 (≈ 148 µM) |
| COc1cc(/C=C2\SC(N)=NC2=O)cc(OC)c1 | 3.8 (≈ 14.4 µM) |
| COc1ccccc1N(C)S(=O)(=O)c1ccc(C(=O)Nc2cc(F)ccc2C)cc1 | 7.5 (≈ 17.5 µM) |
| COc1ccc(NC(=O)COC(=O)CCC2CCCC2)c(OC)c1 | 17.4 (≈ 51.9 µM) |
| CC[C@H](C)[C@H](NC(N)=O)C(=O)NCCc1ccc(Cl)cc1 | > 46.8 |
| Cc1cc(Cl)nc(-c2ccccc2O)n1 | < 0.2 |
| COc1cccc2[nH]c3c(N4CCc5ccccc5C4)ncnc3c12 | 0.9 (≈ 2.72 µM) |
| O=c1c2ccccc2nc(/C=C/c2ccc(F)cc2)n1-c1ccccc1O | 5.2 (≈ 14.5 µM) |
| C=CCOC(=O)C1=C(C)NC(=O)NC1c1ccc2c(c1)OCO2 (stereo not given) | 43.4 (≈ 137 µM) |
| Cc1csc(NC(=O)c2ccc3c(c2)OCO3)n1 | 31.4 (≈ 120 µM) |
| O=C(Nc1cccc(NC(=O)c2ccccc2F)c1)c1ccccc1 | 0.9 (≈ 2.69 µM) |
| COc1cc(OC)c(NC(=O)C2CCCO2)cc1Cl (stereo not given) | > 42.9 |
| Nc1nc2ccc(C(=O)NCCOC(=O)C3CCCCC3)cc2s1 | 12.8 (≈ 36.8 µM) |
| CNS(=O)(=O)c1cccc(C(=O)OCC(=O)N2CCCC2)c1 | 45.2 (≈ 138 µM) |
| O=C(NCCc1ccc(Cl)cc1)c1ccc(Br)s1 | 1.2 (≈ 3.48 µM) |
| CCN(c1cccc2ccccc12)S(=O)(=O)c1ccc(Cl)nc1 | 7.9 (≈ 22.8 µM) |
| C=CC[n+]1c(C)csc1Nc1cccc(Br)c1.[Br-] | 3.3 |
| CCCCn1c(N)c(N(CC)C(=O)COc2ccc(C#N)cc2)c(=O)[nH]c1=O | 15.6 (≈ 40.5 µM) |

Next, values leading:

| solubility kinetic [µg/mL] | SMILES |
| --- | --- |
| 0.7 (≈ 2.13 µM) | COc1ccc(NC(=O)NCCCCc2ccccc2)c(OC)c1 |
| > 35.7 | CC(C)=NN1C(c2nonc2N)=NOC1(C)C |
| 43.7 (≈ 136 µM) | CC(=O)NC1CCN(CC(=O)Nc2cccc([N+](=O)[O-])c2)CC1 |
| > 42.7 | Cl.O=C(CCN1CCOCC1)NCc1ccccc1 |
| 22.5 (≈ 117 µM) | CCCNc1ncnc2onc(C)c12 |
| > 50.6 | O=C(O)c1ccc(NC(=O)c2ccc(COc3ccccc3)o2)cc1 |
| 0.5 (≈ 1.62 µM) | CCC(=O)Nc1ccc2c(c1)Cc1cc(NC(=O)CC)ccc1-2 |
| 41 (≈ 137 µM) | COc1cc(N2C(=O)CSC2=S)cc(OC)c1OC |
| 32.1 (≈ 134 µM) | O=C(NCc1ccccc1Cl)C1CCCO1 (stereo not given) |
| > 45.3 | O=C(NS(=O)(=O)c1ccc(Cl)s1)c1ccccc1 |
| 3.1 (≈ 9.53 µM) | O=C(NC(=S)Nc1ccccc1Br)c1ccco1 |
| > 36.3 | CCCCNC(=O)c1cc(C)nc2ccccc12 |
| 1.2 (≈ 4.54 µM) | Cc1ccc(C(=O)/C=C/c2cc(C#N)n(C)c2C)cc1 |
| > 41.8 | Cc1ccc(C)c(NC(=S)N2CCCCC2CO)c1 (stereo not given) |
| 42.6 (≈ 128 µM) | Cc1nonc1OCCN1CCN(c2ccc([N+](=O)[O-])cc2)CC1 |
| 42.8 (≈ 139 µM) | CC1(C)C2CCC1(CS(=O)(=O)Nc1ccccc1)C(=O)C2 (stereo not given) |
| > 51.4 | COc1ccc(CN(C)CC(=O)Nc2c(C)cccc2C)c(OC)c1 |
| > 38.5 | O=C(c1ccc(Cl)cc1)n1cnc2ccccc21 |
| 3.4 (≈ 11.5 µM) | O=C(NCc1ccc(Cl)cc1)c1ccc2ccccc2n1 |
| 41.7 (≈ 149 µM) | c1ccc(N2CCN(c3nc4ccccc4[nH]3)CC2)nc1 |
| > 41.9 | Cc1ccnc(NC(=O)CCc2c[nH]c3ccccc23)c1 |
| > 54.2 | Cc1nn(CC(=O)N2CCN(C(=O)c3ccco3)CC2)c(C)c1[N+](=O)[O-] |

| solubility kinetic [µg/mL] | SMILES |
| --- | --- |
| > 37.6 | N#Cc1sc(NCc2ccccn2)nc1Cl |
| > 41.9 | CCC(Oc1ccccc1)C(=O)NC1CCSC1=O (stereo not given) |
| > 42 | O=C(O)CN1C(=O)C(=O)N(Cc2ccccc2F)C1=O |
| > 47.9 | CC1=C/C(=N\OS(=O)(=O)c2ccccc2)C(C(C)C)=CC1=O |
| 7.8 (≈ 26.9 µM) | Cc1cc(NC(=O)Cn2cnc3sccc3c2=O)no1 |
| 2.9 (≈ 11.5 µM) | Cc1ccccc1NC(=O)/C(C#N)=C/c1ccc[nH]1 |
| 30.8 (≈ 131 µM) | Cc1cc(Oc2ccc(N)cn2)ccc1Cl |
| 22.4 (≈ 55.8 µM) | COc1ccccc1NS(=O)(=O)c1ccc(C)c(C(=O)Nc2cc(C)on2)c1 |
| 43.2 (≈ 129 µM) | CC(C)N(CCc1ccncc1)C(=S)Nc1cccc(Cl)c1 |
| 0.8 (≈ 2.39 µM) | O=C1NC(=O)/C(=C\c2cn(Cc3ccccc3F)c3ccccc23)N1 |
| 2.6 (≈ 9.51 µM) | O=C(/C=C/c1ccc(F)cc1)OCC(=O)c1ccc[nH]1 |
| 49.4 (≈ 132 µM) | COc1ccccc1-c1noc(-c2ccccc2C(=O)NCc2ccco2)n1 |
| > 45.8 | NC(=O)c1ccsc1NC(=O)COC(=O)c1ccccn1 |
| 7.8 (≈ 23.2 µM) | COc1ccc(Cl)cc1C(=O)NCCCSc1ccccc1 |
| 4 (≈ 12.8 µM) | Cc1cc(C(=O)NC(C)CCc2ccccc2)ccc1[N+](=O)[O-] (stereo not given) |
| 0.8 (≈ 2.73 µM) | COc1cc2ccccc2cc1C(=O)Nc1ccc(O)cc1 |
| > 33.8 | CC(=O)NC(CC(=O)O)c1ccc(F)cc1 (stereo not given) |
| 2.3 (≈ 8.32 µM) | Cc1cc(C(=O)NCC2CCCCC2)ccc1[N+](=O)[O-] |
| > 41.5 | O=S(=O)(c1cccc2cccnc12)N1CCCCC1 |
| 1.7 (≈ 6.43 µM) | CC(C)(C)CC(=O)NC(=S)NCc1ccccc1 |
| > 46.8 | O=C(COc1ccccc1[N+](=O)[O-])N1CCCc2ccccc21 |
| 26.1 | CN(C)CC/C=C1/c2ccc(F)cc2Sc2ccc(Cl)cc21.Cl |
